Measured values: patent US6673937B2, “Syntheses and methods of use of new antimitotic agents” (The University of Pittsburgh, priority 2000, dated 2004)

Key:
fungi = details: cited from earlier work
tsFT210 cells [1] = experiment: Flow cytometry, G1 transition in tsFT210 cells; format: cell-based, mouse; details: 100 μM, additional 6 hours
tsFT210 cells [2] = experiment: Flow cytometry, G2/M arrest in tsFT210 cells; format: cell-based, mouse; details: 6 hours
Description: Oncogene 18:6989-6996, Th′ng JP, Wright PS, Hamaguchi J, Lee MG, Norbury CJ, Nurse P and Bradbury EM (1990) The FT210 cell line is a mouse G2 phase mutant with a temperature-sensitive CDC2 gene product. Cell 63:313-324.). Cell proliferation was blocked at G2 phase by incubation at 39.4° C. for 17 h. The synchronized cells were then released by re-incubating at 32.0° C. and treated immediately with 0-10 μM SR-7, 1 μM nocodazole or 100 EM SC-ααδ9, respectively, to probe for G2/M arrest. […] The harvested cells were stained with a solution containing 50 μg/ml propidium iodide and 250 μg/ml RNase A. Flow cytometry analysis was conducted with a Becton Dickinson FACS Star (Franklin Lakes, N.J.). […] This G2/M retention at 4C is probably due to the extended cell cycle blockage at 39.4° C. (Osada H, Cui CB, Onose R and Hanaoka F (1997) Screening of cell cycle inhibitors from microbial metabolites by a bioassay using a mouse cdc2 mutant cell line, tsFT210. Bioorg Med Chem 5:193-203). […] SC-ααδ9 is an inhibitor of the Cdc25 family of phosphatases that controls cell cycle checkpoints (Rice RL, Rusnak JM, Yokokawa F, Yokokawa S, Messner DJ, Boynton AL, Wipf P and Lazo JS (1997) A targeted library of small molecule, tyrosine and dual specificity phosphatase inhibitors derived from a rational core design and random side chain variation. Biochemistry 36:15965-15974).

Cdk1 = experiment: Western blotting for Cdk1 phosphorylation status in tsFT210 cells; format: cell-based, mouse; details: 6 hours
Description: tsFT210 cells were harvested using the same procedure for cell synchronizing and drug exposure as described above for the G2/M flow cytometric analysis. The protein lysates were analyzed by Western blotting for Cdk1 as described previously (Tamura K, Southwick EC, Kerns J, Rosi K, Carr BI, Wilcox C and Lazo JS (2000) Cdc25 inhibition and cell cycle arrest by a synthetic thioalkyl vitamin K analogue. Cancer Res 60:1317-1325.). The inventors used Cdk1 isolated from human MCF-7 cells to assay for in vitro inhibition of enzyme activity because of available antibodies and convenience. Asynchronous cells grown at 37° C. in 5% CO2 in DMEM containing 10% fetal bovine serum were treated with lysis buffer and harvested as previously described (Vogt A, Wang AS, Johnson CS, Fabisiak JP, Wipf P and Lazo JS (2000) In vivo antitumor activity and induction of insulin-like growth factor-1 resistant apoptosis by SC-ααδ9. J Pharmacol Exptl Therap 292:530-537.). Cdk1 kinase activity assay was performed as previously described (Yu L, Orlandi L, Wang P, Orr MS, Senderowicz AM, Sausville EA, Silvestrini R, Watanabe N, Piwnica-Worms H, O° Connor PM (1998) UCN-01 arogates G2 arrest through a Cdc2-dependent pathway that is associated with inactivation of the WeelHu kinase and activation of the Cdc25C phosphatase. J Biol Chem 273: 33455-33464.). […] Histone H1 was separated from other proteins by SDS-PAGE and analyzed for incorporation of radioactive phosphate with a Molecular Dynamics STORM 860 Phospholmager (Sunnyvale, CA).
The major controlling molecule for G2/M transition is the cyclin dependent kinase, Cdk1, whose cellular activity is tightly regulated by phosphorylation (Pines J (1999) Four-dimensional control of the cell cycle. Nature Cell Biol 1:E73-79., Hunter T and Pines J (1994) Cyclins and cancer II: cyclin D and CDK inhibitors come of age. Cell 79:573-582). […] The protein lysates were analyzed by Western blotting for Cdk1 content and phosphorylation status as described elsewhere herein. […]

bovine brain tubulin [3] = experiment: GTP-induced tubulin assembly (turbidity); format: biochemical
Description: Tubulin without microtubule-associated proteins was isolated from fresh bovine brains (Hamel E and Lin CM (1984). Separation of active tubulin and microtubule-associated proteins by ultracentrifugation and isolation of a component causing the formation of microtubule bundles. Biochemistry 23:4173-4184). Inhibition of assembly reactions was carried out as described previously (Verdier-Pinard P, Lai J-Y, Yoo H-D, Yu J, Marquez B, Nagle DG, Nambu M, White JD, Falck JR, Gerwick WH, Day BW and Hamel E (1998) Structure-activity analysis of the interaction of curacin A, the potent colchicine site antimitotic agent, with tubulin and effects of analogs on the growth of MCF-7 breast cancer cells. Mol Pharmacol 53:62-76.).
The inventors examined the ability of SR-7 to alter tubulin polymerization or depolymerization in vitro. FIG. 28, Panel A. Compounds (predissolved in DMSO) were preincubated with tubulin containing monosodium glutamate at 30 ° C. for 15 min. Samples were cooled to 0 ° C. and GTP was added. Samples were placed in a temperature-controlled multi-cuvette holder of a spectrophotometer held at 0 ° C. Baselines were established and temperature was rapidly raised to 30 ° C. Turbidity development in the cuvettes was measured at 350 nm. FIG. 28, Panel B. Compounds were added to the tubulin plus monosodium glutamate mixture at 0 ° C., placed in the spectrophotometer and temperature was raised to 30 ° C. Addition of 0.4 mM GTP to isolated bovine brain tubulin produced robust polymerization that began to plateau approximately 20 min after microtubule assembly commenced (Panel A).

bovine brain tubulin [4] = experiment: Inhibition of [3H]colchicine binding; details: Mean ± SEM, N = 9
Description: Using methods described previously (Verdier-Pinard P, Lai J-Y, Yoo H-D, Yu J, Marquez B, Nagle DG, Nambu M, White JD, Falck JR, Gerwick WH, Day BW and Hamel E (1998) Structure-activity analysis of the interaction of curacin A, the potent colchicine site antimitotic agent, with tubulin and effects of analogs on the growth of MCF-7 breast cancer cells. Mol Phannacol 53:62-76.). 5,μM [^3H]colchicine was incubated with either 5% DMSO vehicle or compound (5 or 50 μM) at 37° C. for 15 min with 1 μM tubulin in the presence of 1 M monosodium glutamate, 0.1 M glucose-1-phosphate, 1 mM MgCl2, 1 mM GTP and 0.5 mg/ml bovine serum albumin. The solutions were filtered through two stacks of DEAE-cellulose filters and the radioactivity in the filtrate was determined by liquid scintillation spectrometry. Each series of determinations included positive controls of 5 and 50 μM curacin A. The inventors found no evidence that SR-7 could bind to the colchicine site of tubulin. […] The inventors propose that SR-7 may act at another site such as the previously characterized vinca alkaloid site.

Bcl-2 = Bcl-2 phosphorylation immunoblot in MCF-7 cells; format: cell-based, human
Source text: Attempts to determine the phosphorylation status of Bcl-2 in tsFT210 cells using two different antibodies were unsuccessful due to the antibodies' inability to detect mouse Bcl-2 or the lack of specificity. Therefore, phosphorylated and non-phosphorylated Bcl-2 was detected in lysates from human MCF-7 cells (American Type Culture Collection, Manassas, Va.) treated with microtubule perturbing agents. Equal amounts of protein were separated by electrophoresis on 15% SDS-PAGE followed by immunoblotting with an antihuman Bcl-2 antibody (sc-509, Santa Cruz Biotechnology). Positive antibody reactions were visualized using peroxidase-conjugated secondary antibodies (Jackson ImmunoResearch, West Grove, Pa.) and an enhanced chemiluminescence detection system (Renaissance, NEN, Boston, Mass.) according to manufacturer's instructions.
All known microtubule disrupting compounds cause hyperphosphorylation of the antiapoptotic protein Bcl-2 (Haldar S, Jena N and Croce CM (1995) Inactivation of bcl-2 by phospliorylation. Proc Natl Acad Sci USA 92:4507-4511 and Basu A and Haldar S (1998) Microtubule-damaging drugs trigger bcl2 phosphorylation-requirement of phosphorylation on both serine-70 and serine-87 residues of bcl2 protein. Intl J Oncol 13:659-664). Therefore, the phosphorylation status of Bcl-2 in cells treated with various compounds including SR-7 was examined and the results are illustrated in FIG. 29. Proteins from lysates of MCF-7 cells treated with 0.5 μM paclitaxel, 1 μM nocodozole, 1,μM vincristine and, 3 or 10 μM SR-7 were separated by electrophoresis on 15% SDS-PAGE followed by immunoblotting with an antibody to Bcl-2. The phosphorylated form of Bcl-2 (P) appeared as the upper bands and the underphosphorylated form (U) was the lower band.

## Oc1ccc(O)c2c1[C@H](O)[C@@H]1O[C@@H]1C21Oc2cccc3cccc(c23)O1 [Palmarumycin C12]
fungi
  antifungal activity: high antifungal activity

## O=C1CC[C@@H](O)[C@@H]2C1=C(O)C=CC21Oc2cccc3cccc(c23)O1 [Palmarumycin CP4]
fungi
  antifungal activity: high antifungal activity

## CCCCCCCCCC(=O)NC(CCC(=O)N(CCNC(=O)c1nc(-c2ccccc2)oc1-c1ccccc1)Cc1ccccc1)C(=O)O (stereo not drawn) [SC-ααδ9, 4-(benzyl-(2-[ (2,5-diphenyl-oxazole-4-carbonyl)-amino]-ethyl)-carbamoyl)-2-decanoylamino butyric acid, reference compound]
tsFT210 cells [1]
  G1 transition: caused a prominent G1 block
tsFT210 cells [2]; 100 μM, Panel I
  G2/M cell cycle transition: G2/M inhibition
Cdk1; 100 IM, lane 8
  Cdk1 phosphorylation status: yielded a hyperphosphorylated Cdk1

## C=CC[C@@H](CC/C(C)=C/C=C/CC/C=C\[C@@H]1CSC([C@@H]2C[C@@H]2C)=N1)OC [curacin A]
Bovine brain tubulin [3]; 1 μM
  inhibition of GTP-induced tubulin assembly: 50%
Bovine brain tubulin [3]; 5 μM
  inhibition of GTP-induced tubulin assembly: completely inhibited GTP-induced tubulin assembly
Bovine brain tubulin [4]; 5 μM compound, 5 µM
  Percent inhibition of [3H]colchicine binding: ~90%
Bovine brain tubulin [4]; 5 μM compound, listed as Curacin A, 5 µM
  Percent inhibition of [3H]colchicine binding: 89.8 ± 0.6%
Bovine brain tubulin [4]; 50 μM compound
  Percent inhibition of [3H]colchicine binding: 97.3 ± 3.1%

## O=C1c2c(O)ccc(O)c2C2(Oc3cccc4cccc(c34)O2)[C@@H]2O[C@H]12 [Palmarumycin C3]
fungi
  antifungal activity: high antifungal activity

## COC(=O)Nc1nc2cc(C(=O)c3cccs3)ccc2[nH]1 [nocodazole]
tsFT210 cells [2]; 1 μM
  G2/M cell cycle transition: blocked cell passage through G2/M
Bcl-2; 1 μM nocodozole
  Bcl-2 phosphorylation: caused prominent phosphorylation of Bcl-2
Cdk1; 1 μM
  Cdk1 phosphorylation status: no hyperphosphorylation of Cdk1 was seen

## CC[C@]1(O)C[C@H]2CN(CCc3c([nH]c4ccccc34)[C@@](C(=O)OC)(c3cc4c(cc3OC)N(C=O)[C@H]3[C@@](O)(C(=O)OC)[C@H](OC(C)=O)[C@]5(CC)C=CCN6CC[C@]43[C@@H]65)C2)C1 [vincristine]
Bcl-2; 1 μM vincristine
  Bcl-2 phosphorylation: caused prominent phosphorylation of Bcl-2

## CC(=O)O[C@H]1C(=O)[C@@]2(C)[C@H]([C@H](OC(=O)c3ccccc3)[C@]3(O)C[C@H](OC(=O)[C@H](O)[C@@H](NC(=O)c4ccccc4)c4ccccc4)C(C)=C1C3(C)C)[C@]1(OC(C)=O)CO[C@@H]1C[C@@H]2O [paclitaxel]
Bcl-2; 0.5 μM
  Bcl-2 phosphorylation: caused prominent phosphorylation of Bcl-2

## O=C1C=CC(=O)[C@@]23O[C@@]12C1(Oc2cccc4cccc(c24)O1)[C@@H]1O[C@@H]1[C@@H]3O [Palmarumycin C10]
fungi
  antifungal activity: high antifungal activity
